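Compound exposure: 48 hours, 5 concentrations, 96-well plates. Abbreviation: GI50, concentration required for 50% inhibition of growth. The concentration for full growth arrest is given as TGI.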
What was measured:
Experiment in all cases: growth of human tumour cells (NCI), 48 h
[1] = tested on: MDA-MB-231 breast
[2] = tested on: UO-31 renal
[3] = tested on: SNB-75 CNS
[4] = tested on: MCF7 breast
[5] = tested on: CAKI-1 renal
[6] = tested on: HCT-116 colon
[7] = tested on: SK-MEL-5 melanoma
[8] = tested on: HCC-2998 colon
[9] = tested on: SW-620 colon
[10] = tested on: COLO 205 colon

| Compound | TGI [1] [µM] | TGI [2] [µM] | TGI [3] [µM] | TGI [4] [µM] | TGI [5] [µM] | TGI [6] [µM] | TGI [7] [µM] | TGI [8] [µM] | TGI [9] [µM] | GI50 [1] [µM] | GI50 [2] [µM] | GI50 [10] [µM] | TGI [10] [µM] | GI50 [3] [µM] | GI50 [4] [µM] | GI50 [5] [µM] | GI50 [6] [µM] | GI50 [7] [µM] | GI50 [8] [µM] | GI50 [9] [µM] |
| --- | --- | --- | --- | --- | --- | --- | --- | --- | --- | --- | --- | --- | --- | --- | --- | --- | --- | --- | --- | --- |
| CCCc1nc(Cl)nc(Cl)c1Cl | 2.07 | 0.111 | 6 | 1.52 | 0.433 | 1.3 | 3.21 | 4.57 | 2.17 | – | – | – | – | – | – | – | – | – | – | – |
| COc1ccc(-c2nc(-c3nc4cc(Cl)c(F)cc4[nH]3)c3ccccn23)cc1 | > 100 | 35.7 | > 100 | > 100 | > 100 | > 100 | 6.79 | > 100 | > 100 | 5.82 | 2.62 | 7.1 | > 100 | 5.31 | 4.57 | 5.35 | 6.09 | 2.22 | 4.03 | 5.38 |
| COc1ccc(Nc2nc(Nc3cc(C)[nH]n3)c3cc(OC)c(OC)cc3n2)cc1 | 2.9 | 2.93 | 3.15 | 2.05 | 2.95 | – | 3.05 | 2.9 | 1.02 | 1.35 | 1.45 | – | – | 1.66 | 0.457 | 1.59 | – | 1.37 | 1.32 | 0.314 |
| C=CC(C)(C)n1cc(C2=C(O)C(=O)C(c3cn(C(C)(C)C=C)c4ccccc34)=C(O)C2=O)c2ccccc21 | 8.27 | 4.27 | 7.77 | 12.4 | 6.56 | > 33.9 | 4.88 | 9.8 | 53.8 | – | – | – | 30 | – | – | – | – | – | – | – |
| Clc1ccc(/C=C/c2ccc3ccccc3n2)cc1 | > 100 | > 100 | > 67.1 | > 100 | > 57.9 | > 100 | > 100 | 8.41 | > 100 | 2.3 | 4.68 | 1.46 | 6.73 | 2.63 | 0.467 | 2.29 | 0.399 | 0.551 | 0.968 | 0.553 |
| C=C1C(=O)O[C@H]2[C@H]1CC/C(Cn1cc(-c3ccc(N)cc3)nn1)=C\CC[C@@]1(C)O[C@@H]21 | 15.8 | 10.1 | 22.4 | 9.13 | 7.03 | 4.22 | 12.7 | 12 | 6.01 | 3.45 | 1.87 | 1.79 | 4.05 | 4.98 | 2.41 | 1.77 | 1.55 | 3.47 | 3.49 | 2.16 |
| O=C(NN1C(=O)CSC1c1cccc(Cl)c1)C(O)c1ccccc1 (centres undefined) | > 100 | > 100 | > 100 | > 100 | > 100 | > 100 | > 100 | – | > 100 | 87.7 | 75.5 | > 100 | > 100 | 65 | > 100 | 90.3 | 83.8 | > 100 | – | > 100 |
| CO[C@H]1/C=C/O[C@@]2(C)Oc3c(C)c(O)c4c(O)c(c(/C=N/N5CCN(C)CC5)c(O)c4c3C2=O)NC(=O)/C(C)=C\C=C\[C@H](C)[C@H](O)[C@@H](C)[C@@H](O)[C@@H](C)[C@H](OC(C)=O)[C@@H]1C | > 100 | > 100 | – | > 100 | > 100 | > 100 | > 100 | > 100 | > 100 | – | – | – | > 100 | – | – | – | – | – | – | – |
| Cn1cc(-c2cc(-c3cn(C)c4ccc(Cl)cc34)[nH]n2)c2cc(Cl)ccc21 | 15.1 | 14.8 | 30.6 | 6.89 | 6.05 | 15.8 | 3.6 | 3.84 | 14.6 | 2.95 | 3.01 | 2.22 | 5.35 | 4.25 | 2.64 | 1.7 | 3.82 | 1.79 | 1.71 | 3.52 |
| FC(F)(F)c1ccc(-c2nn3ncccc3c2-c2ccnc(Nc3ccc4c(c3)OCCO4)n2)cc1 | > 21.9 | > 21.9 | > 25 | > 25 | > 19.2 | > 25 | > 25 | > 25 | > 25 | 3.49 | 3 | 16.6 | > 25 | > 8.49 | 8.04 | 4.86 | 8.15 | 6.42 | 6.56 | > 25 |
| CC(NC(=O)Cc1ccc(C(F)(F)P(=O)(OCc2ccc([N+](=O)[O-])o2)N(C)CCCCCl)cc1)c1ccc(OCC2CCCCC2)c(C(N)=O)c1 (centres undefined) | 35.3 | 21.9 | 9.97 | 41.4 | 48.4 | 4.11 | 15.5 | 9.11 | 15.8 | 15.7 | 7.74 | 3.94 | 11.2 | 4.7 | 6.53 | 15.8 | 1.93 | 6.77 | 3.25 | 6.82 |
| CCCCCCCCCc1ccc(OCCOCCOCCOCCOCCOCCOCCOCCOCCO)cc1 | 1.51 | 4.82 | 2.48 | 1.96 | 5.75 | 1.59 | 0.643 | 1.85 | 5.55 | 0.668 | 0.733 | 0.243 | 0.829 | 0.881 | 0.328 | 0.478 | 0.374 | 0.136 | 0.75 | 1.19 |
| Cc1cc(CCl)c(C)cc1CCl | 18.6 | 3.71 | 4.15 | 2.32 | 1.59 | 6.58 | 17.2 | 3.51 | 5.74 | 4.08 | 1.53 | 1.53 | 3.11 | 1.38 | 0.281 | 0.358 | 1.48 | 4.19 | 1.54 | 1.34 |
| COc1cc(C2=NN(C(C)=O)C(c3cc(OC)c(OC)c(OC)c3)C2)ccc1O (centres undefined) | > 100 | > 100 | > 100 | > 100 | > 21.5 | > 73.6 | 2.19 | > 100 | > 100 | 1.79 | 0.809 | 0.274 | 1.05 | 0.26 | 0.276 | 0.317 | 0.385 | 0.132 | 0.539 | 0.296 |
| CCn1cc(/C=C2\Oc3cc(OCC#N)ccc3C2=O)c2cc(OC)ccc21 | > 77.3 | > 100 | – | > 100 | 28.9 | > 100 | 4.17 | > 100 | > 100 | 1.47 | 0.669 | 0.348 | 4.12 | 0.527 | 0.209 | 0.0663 | 0.143 | 0.204 | 1.86 | 0.131 |
| COc1ccc(-c2cnnn2-c2nonc2-n2cccc2)cc1OC | 69.4 | > 100 | 39.2 | > 100 | > 100 | > 100 | 21.1 | 37.7 | > 100 | 5.35 | 6.27 | 3.64 | 14.8 | 4.19 | 3.17 | 3.39 | 4.19 | 4.6 | 5.53 | 3.61 |
| Nc1c(C(=O)c2cccc(C#CCN3CCCCC3)c2)cnn1-c1ccc(F)cc1 | > 25 | > 25 | > 25 | > 25 | > 25 | > 25 | > 25 | > 25 | > 25 | > 25 | 16.2 | 24.9 | > 25 | > 25 | 19.1 | > 25 | > 17.7 | 9.59 | > 25 | > 25 |
| COc1cc(F)ccc1-c1cc(Nc2cc(CS(C)(=N)=O)ccn2)ncc1F (centres undefined) | > 100 | > 100 | 0.433 | > 100 | > 100 | > 100 | 14.3 | – | > 33.1 | 0.0974 | 0.0337 | 0.0333 | 0.17 | 0.0663 | 0.0391 | 0.0438 | 0.0293 | 0.0385 | 0.184 | 0.0559 |
| CC(=O)c1cccc(NC(=O)C(=O)c2c(O)c3ccccc3oc2=O)c1 | > 100 | > 100 | > 100 | > 100 | > 100 | > 100 | > 100 | > 100 | > 100 | – | – | – | – | – | – | – | – | – | – | – |
| CCOC(=O)c1ccc(NC(=O)NC2=NCCS2)cc1 | > 100 | > 100 | > 100 | > 100 | > 100 | > 100 | > 100 | > 76.7 | > 100 | 1.64 | 5.13 | 40.8 | > 100 | 0.252 | 0.517 | 1.39 | 50.9 | 2.7 | 3.91 | 22.9 |
| O=C(Nc1cccc2[nH]c(C(F)(F)F)nc12)c1cc(Cl)ccc1Cl | 6.71 | 11.3 | 8.06 | 49.7 | 31.3 | 12.9 | 3.45 | 15.8 | 14.8 | 2.43 | 2.78 | 1.84 | 3.62 | 2.06 | 2.81 | 2.7 | 3.06 | 1.77 | 3.87 | 3.6 |
| CSc1ncnc2c1ncn2CC(=O)C1CCC2C3CCC4=CC(=O)CCC4(C)C3CCC12C (centres undefined) | 27.7 | 2.52 | 27.9 | 14.9 | > 70.2 | 59.2 | 5.15 | – | > 100 | – | – | – | 14.4 | – | – | – | – | – | – | – |
| CC(/C=C/C(O)=C1/C(=O)CNC1=O)=C\[C@@H](C)[C@H]1O[C@@]2(C)O[C@H](C(=O)[C@@H]3O[C@@]32C)[C@@H]1C | 38.1 | 33.2 | 63.1 | 39.8 | 57 | 39 | 40.4 | – | > 100 | – | – | – | 43.6 | – | – | – | – | – | – | – |
| COc1ccc(/C=C2/C(=O)N(C(=O)c3ccccc3O)N=C2C)cc1 | > 100 | – | – | > 100 | 51 | > 100 | 9.56 | > 100 | > 100 | – | – | – | > 89.2 | – | – | – | – | – | – | – |
| O=C1c2cccnc2-c2nc(-c3cccnc3)cc3c2c1nc1ccccc13 | > 72 | 37.3 | 6.91 | 3.32 | 22.8 | > 32.7 | 3.46 | – | 5.63 | 4.43 | 15.2 | 3.33 | 10.9 | 2.34 | 1.64 | 6.96 | 2.8 | 1.55 | – | 2.28 |
| O=C(CC1(O)C(=O)Nc2ccc(F)cc21)c1ccc(C(=O)NCC2CCC3(CC2)OOC2(CCCCC2)OO3)cc1 (centres undefined) | 29.9 | 2.28 | – | 29 | 27.7 | 32 | 14.4 | 30 | 27.4 | 9.92 | 0.858 | 5.37 | 22.9 | – | 8.23 | 14 | 8.66 | 3.69 | 14.6 | 7.72 |
| CCSc1ccc([C@@H]2[C@@H](O)C(=O)N2c2cc(OC)c(OC)c(OC)c2)cc1 | 29.4 | 34.2 | 65.1 | 15.7 | – | 3.06 | 0.433 | 17.4 | > 100 | 0.0395 | 0.21 | 0.0163 | 0.072 | < 0.011 | < 0.01 | – | < 0.011 | < 0.0118 | 0.0489 | < 0.0121 |

— PubChem BioAssay (NCI)
